Test results taken from article PMC10988762, “Inhibition of malaria and babesiosis parasites by putative red blood cell targeting small molecules” (Frontiers in Cellular and Infection Microbiology, 2024).
Structures can show the parent of a compound that is named as a salt. Where two headings read alike, the source gives them in different places.

Key:
uninfected RBCs [1] = test: Cellular phosphatidylserine exposure assay (annexin V flow cytometry);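 as to all read-outs here: flow cytometry recording 10,000 events per condition, gated on single cells, with the two experiments using blood from separate donors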; conditions: for PS exposure on RBCs, in words: 5x P. falciparum 3D7-IC50, 24, 48, 72h
P. falciparum strain 3D7 = test: Inhibitor susceptibility dose-response assay (SYBR-Green I), P. falciparum 3D7; type: cell-based, Plasmodium falciparum; conditions: Plasmodium falciparum, read-out: IC50 (S.D.), P. falciparum-3D7
Protocol: (§1) The P. falciparum strains 3D7 and Dd2 were obtained from the Walter and Eliza Hall Institute (Melbourne, Australia) and the Malaria Research and Reference Reagent Resource, respectively. […] B. divergens parasites were maintained and assayed in mixed stages without synchronization.
(§2) Ring-stage P. falciparum (1%-parasitemia starting, 1%-hematocrit) and asynchronous B.divergens (0.5%-parasitemia starting, 3%-hematocrit) were incubated with plated compounds for 72h, and ring-stage P. knowlesi (1%-parasitemia starting, 1%-hematocrit) for 48h, before lysis and staining with dye. To quantify the species-specificity of the inhibitors, we divided the range of IC50s across the 4 test lines by the average IC50 across the same lines: inhibitors with increased scores show species-specific activity and reduced scores indicate broad-spectrum, pan-species activity.

P. falciparum strain Dd2 = test: Inhibitor susceptibility dose-response assay (SYBR-Green I), P. falciparum Dd2; type: cell-based, Plasmodium falciparum; conditions: Plasmodium falciparum, read-out: IC50 (S.D.), P. falciparum-Dd2
Protocol: as §1, §2

in vitro = conditions: human
[2] = tested on: BdC9 line of B. divergens; test: Inhibitor susceptibility dose-response assay (SYBR-Green I), B. divergens; type: cell-based, Babesia divergens; conditions: Babesia divergens, read-out: IC50 (S.D.), B. divergens
Protocol: as §1, §2

P. knowlesi YH1 strain = test: microbe, parasite or virus in culture; type: cell-based, Plasmodium knowlesi; conditions: for IC50: Plasmodium knowlesi, 48 h, read-out: IC50 (S.D.), P. knowlesi
Protocol: as §1, §2

RBC = conditions: read-out: Micromolar IC50 (RBC), PS exposure, cited from earlier work
P. falciparum (3D7) = test: Assay for inhibition of parasite proliferation via RBC-targeting (transient exposure of RBCs, wash, then infection); type: cell-based, Plasmodium falciparum; conditions: for antimalarial activity retained after transient exposure of RBCs, relative to continuous exposure to inhibitor: 5x P. falciparum 3D7-IC50, RBC preincubation 4-5 hours then washed, 100% = inhibition with continuous exposure, P<0.01; for inhibitory activity following transient exposure of RBCs, in words: transient vs continued exposure, dose-response format where stated, n=3
Protocol: All plates were frozen for storage before assay. For assay, duplicate plates were preincubated with donor O+ RBCs at 2% hematocrit at 37°C in 50µL for 4-5 hours. Following preincubation, one but not the other plate in each pair was washed 4X in complete RPMI to dilute inhibitor. We transferred RBCs from both washed and unwashed plates to black, clear bottom 96-well plates (Corning Cat. No. 3904) and supplemented these suspensions with MACS-purified P. falciparum (3D7) schizonts for a starting parasitemia of 0.1% - 0.25% at 1% hematocrit. Following 72h incubation in standard culture conditions, samples were processed for SYBR-Green I signal ([Mandt et al., 2019]). […] To identify host-targeting compounds, we compared DMSO-treated to inhibitor-treated samples (Students t-test, paired). We carried out the assay with 1 µM mefloquine (Sigma-Aldrich Cat. No. M2319) as a control for reversible inhibition. All assays were conducted in biological triplicate, with each experiment utilizing different donor RBCs. For select compounds, we carried out this same assay in a dose-response series (n=3 experiments). Following normalization to DMSO-controls, we assessed inhibitor activity following transient exposure of RBCs by Two-Way ANOVA tests for repeated measures (Graphpad Prism v9): high P values indicate support for the null hypothesis that dose-dependent inhibition is not modulated by dilution after exposure, consistent with a direct inhibitory effect of the compounds on RBCs persisting after transient exposure.

P. falciparum 3D7 = test: Co-administration with established antimalarials, IC50 shift; type: cell-based, Plasmodium falciparum; conditions: P<0.05
Description: Our experimental compound set is weighted toward kinase inhibitors, reflecting the high degree of small molecule development in this target space.

uninfected RBCs [3] = conditions: 5x P. falciparum 3D7-IC50; 24, 48, 72h
[4] = 48h, 5x P. falciparum 3D7-IC50, % of RBCs, mean of 2 experiments
[5] = 24h, 5x P. falciparum 3D7-IC50, % of RBCs, mean of 2 experiments
[6] = 72h, 5x P. falciparum 3D7-IC50, % of RBCs, mean of 2 experiments
[7] = uninfected RBCs (red blood cells), 1% hematocrit
[8] = 3D7, 72h, ring-stage, n=3 experiments (or 2 where indicated with *)
[9] = DD2, 72h, ring-stage, n=3 experiments (or 2 where indicated with *)
[10] = 72h, asynchronous, n=3 experiments (or 2 where indicated with *)

SMILES | Phosphatidylserine exposure (%) 48h (uninfected RBCs [1]; [4]) | IC50 (P. falciparum strain 3D7; 3D7, 72 h) | IC50 (P. falciparum strain Dd2; DD2, 72 h) | IC50 ([2]; 72 h) | IC50 (P. knowlesi YH1 strain) | Phosphatidylserine exposure (%) 24h (uninfected RBCs [1]; [5]) | Phosphatidylserine exposure (%) 72h (uninfected RBCs [1]; [6]) | hemolysis at 24 h, 5 x P. falciparum 3D7-IC50 (in vitro; [7]) | hemolysis at 48 h, 5 x P. falciparum 3D7-IC50 (in vitro; [7]) | hemolysis at 72 h, 5 x P. falciparum 3D7-IC50 (in vitro; [7]) | further results
CC(C)CC(O)(CC(C)C)c1cnn(C(=O)N2CCCC2)n1 [AA74-1] | 2% | 0.25 µM | 0.5 µM | 4 µM | – | – | – | – | – | – | Phosphatidylserine exposure (%) 24h (uninfected RBCs [1]): 1%; Phosphatidylserine exposure (%) 72h (uninfected RBCs [1]): 5%; hemolysis at 24 h, 5 x P. falciparum 3D7-IC50 (in vitro): -6%; hemolysis at 48 h, 5 x P. falciparum 3D7-IC50 (in vitro): -1%; hemolysis at 72 h, 5 x P. falciparum 3D7-IC50 (in vitro): 2%
COC[C@H]1Cn2cc(-c3nc(Nc4ccnn4C)ncc3C)nc2C(=O)N1Cc1ccc(F)c(F)c1 [AZD0364] | – | 16 µM | 13 µM | 16 µM | – | – | – | – | – | – | –
O=C(O)C1=CC(=C(c2ccc(O)c(C(=O)O)c2)c2ccc(O)c(C(=O)O)c2)C=CC1=O [Aurintricarboxylic acid (ATA), Aurintricarboxylic acid] | – | 37 µM | 44 µM | 29 µM | – | – | – | – | – | – | –
Nc1ccc(C2CCN(C(=O)c3ccc(Oc4ccc(C(F)(F)F)cc4)cc3)CC2)nn1 [BI 749327] | – | 25 µM | 22 µM | 30 µM | 40 µM | – | – | – | – | – | –
Clc1ccc(C(c2ccc(Cl)cc2)n2cc[n+](CC(OCc3ccc(Cl)cc3Cl)c3ccc(Cl)cc3Cl)c2)cc1 (stereo not drawn) [Calmidazolium] | 4% | 0.5 µM | 0.6 µM | 1.2 µM | 0.6 µM | 3% | 9% | -6% | 7% | 14% | –
CCCCCCCCc1ccc(CCC(N)(CO)CO)cc1 [FTY720] | 21% | 3.9 µM | 3.5 µM | 14 µM | 2.2 µM | 4% | 34% | 4% | 23% | 25% | IC50 (RBC; RBC assay: PS exposure ref PMID 21063113): 5 to 10 µM
O=C1Nc2ccc(I)cc2/C1=C/c1cc(Br)c(O)c(Br)c1 [GW5074] | – | 19 µM | 13 µM | 30 µM | 10 µM | – | – | – | – | – | –
Oc1ccc2ccccc2c1SSc1c(O)ccc2ccccc12 [IPA-3] | 35% | 5 µM | 5 µM | 15 µM | 4 µM | 29% | 35% | -14% | 11% | 30% | antimalarial activity retained after transient exposure of RBCs, relative to continuous exposure to inhibitor (P. falciparum (3D7)): ≥ 80%; inhibitory activity following transient exposure of RBCs, in words (P. falciparum (3D7)): statistically indistinguishable from inhibition with continued exposure; IC50 (RBC; RBC assay: PS exposure ref PMID 21214270): < 5 µM
Cc1ccc(NC(=O)c2ccc(CN3CCN(C)CC3)cc2)cc1Nc1nccc(-c2cccnc2)n1 [Imatinib mesylate] | 2% | – | – | – | – | 2% | – | -2% | 2% | 7% | Phosphatidylserine exposure (%) 72h (uninfected RBCs [1]): 4%
Cn1nccc1Nc1nccc(-c2cc3c(s2)C(C)(C)N(CCN2CCOCC2)C3=O)n1 [LY3214996] | 2% | 5.2 µM | 5.7 µM | 10 µM | 6 µM | 2% | 5% | -1% | 13% | 16% | –
CCn1c2ccccc2c2cc(-n3nncc3-c3ccccc3)ccc21 [MBQ-167] | – | 33 µM | 23 µM | 40 µM | 38 µM | – | – | – | – | – | –
CN(C)C[C@@H]1CCn2cc(c3ccccc32)C2=C(C(=O)NC2=O)c2cn(c3ccccc23)CCO1 [Ruboxistaurin] | 2% | – | – | – | 3 µM | 2% | 6% | -1% | 6% | 14% | PS exposure on RBCs, in words (uninfected RBCs [1]): similarly low levels; IC50 (P. falciparum strain 3D7; [8]): 0.9 µM; reduction in the IC50 of chloroquine in combination with fixed, sublethal dose of test compound (P. falciparum 3D7): ≤ 2 fold; IC50 (P. falciparum strain Dd2; [9]): 0.9 µM; IC50 [2, 10]: 2.8 µM
CNC(=O)c1cc(Oc2ccc(NC(=O)Nc3ccc(Cl)c(C(F)(F)F)c3)cc2)ccn1 [Sorafenib] | – | – | – | – | 5 µM | – | – | – | – | – | Phosphatidylserine exposure (%) 24h (uninfected RBCs [1]): 7%; Phosphatidylserine exposure (%) 48h (uninfected RBCs [1]): 12%; Phosphatidylserine exposure (%) 72h (uninfected RBCs [1]): 21%; IC50 (P. falciparum strain 3D7; [8]): 4.9 µM; IC50 (RBC; RBC assay: PS exposure ref PMID 22907570): > 10 µM; IC50 (P. falciparum strain Dd2; [9]): 4 µM; hemolysis at 24 h, 5 x P. falciparum 3D7-IC50 (in vitro): -6%; hemolysis at 48 h, 5 x P. falciparum 3D7-IC50 (in vitro): 16%; hemolysis at 72 h, 5 x P. falciparum 3D7-IC50 (in vitro): 15%; IC50 [2, 10]: 2 µM
Nc1nc(N)c2nc(-c3cccc(O)c3)c(-c3cccc(O)c3)nc2n1 [TG-100-115] | 3% | – | – | – | 0.8 µM | 2% | 5% | -1% | 12% | 18% | antiparasitic activity in vitro, in words, P. knowlesi (P. knowlesi YH1 strain; P. knowlesi): submicromolar activity; activity against P. knowlesi stronger than against the other parasite species (P. knowlesi YH1 strain; P. knowlesi vs other parasite species): ~ 10 x; PS exposure on RBCs, in words (uninfected RBCs [1]): similarly low levels; IC50 (P. falciparum strain 3D7; [8]): 9 µM; IC50 (P. falciparum strain Dd2; [9]): 7 µM; IC50 [2, 10]: 13 µM
O=C(O)/C=C/c1cc(Br)c(Br)c(Br)c1Br [Tetrabromocinnamic acid] | – | > 100 µM | > 85 µM | > 80 µM | > 80 µM | – | – | – | – | – | –
COc1ccc2c(c1)CCC1C2CCC2(C)C(NCCCCCCN3C(=O)C=CC3=O)CCC12 (stereo not drawn) [U-73122] | 9% | – | – | – | 4.4 µM | 5% | 11% | -3% | 16% | 13% | PS exposure on RBCs, in words (uninfected RBCs [1]): lower levels; IC50 (P. falciparum strain 3D7; [8]): 4 µM; antimalarial activity retained after transient exposure of RBCs, relative to continuous exposure to inhibitor (P. falciparum (3D7)): ≥ 80%; inhibitory activity following transient exposure of RBCs, in words (P. falciparum (3D7)): statistically indistinguishable from inhibition with continued exposure; IC50 (P. falciparum strain Dd2; [9]): 5 µM; hemolysis of RBCs, in words (uninfected RBCs [3]): lower levels; IC50 [2, 10]: 20 µM
OC(c1cc(C(F)(F)F)nc2c(C(F)(F)F)cccc12)C1CCCCN1 (stereo not drawn) [mefloquine] | – | – | – | – | – | – | – | – | – | – | inhibitory activity following transient exposure of RBCs, in words (P. falciparum (3D7)): does not retain antimalarial activity at any dose
